Reference: US10448639B2, “Fungicidal pyrazoles” (FMC CORPORATION, priority 2009, dated 2019)

Columns and labels:
Phytophthora infestans = type: in vivo; details: tomato late blight, preventive spray; 100 = 100% disease control, 0 = no control
Rhizoctonia solani = test: Test E: turf brown patch, preventive spray on creeping bent grass (Agrostis sp.) seedlings, disease rating; type: in vivo; details: 100 = 100% disease control; for Test E rating (% disease control): preventive spray, 0 = no control; for Test E disease control rating: 0 = no disease control relative to controls
Text: A dash (-) indicates no test results.

[1] = test system: Puccinia recondita f. sp. tritici; test: Test I: wheat leaf rust, preventive spray on wheat seedlings, visual disease rating; details: wheat leaf rust, 100 = 100% disease control; for Test I rating (% disease control): preventive spray, 0 = no control; for Test I disease control rating: sprayed the day before inoculation, 0 = no disease control relative to controls
Botrytis cinerea = test: Test B: tomato Botrytis, preventive spray on tomato seedlings, visual disease rating; details: tomato Botrytis, 100 = 100% disease control; for Test B rating (% disease control): preventive spray, 0 = no control; for Test B disease control rating: 0 = no disease control relative to controls
Septoria tritici = test: Test G: wheat leaf blotch, preventive spray on wheat seedlings, visual disease rating; details: wheat leaf blotch, 100 = 100% disease control; for Test G rating (% disease control): preventive spray, 0 = no control; for Test G disease control rating: sprayed the day before inoculation, 0 = no disease control relative to controls
Text: (§1) General protocol for preparing test suspensions for Tests A-J: the test compounds were first dissolved in acetone in an amount equal to 3% of the final volume and then suspended at the desired concentration (in ppm) in acetone and purified water (50/50 mix by volume) containing 250 ppm of the surfactant Trem® 014 (polyhydric alcohol esters). The resulting test suspensions were then used in Tests A-J. Spraying a 200 ppm test suspension to the point of run-off on the test plants was the equivalent of a rate of 500 g/ha. Unless otherwise indicated, the rating values indicate a 200 ppm test suspension was used. (An asterisk “*” next to the rating value indicates a 40 ppm test suspension was used.)
The test suspension was sprayed to the point of run-off on wheat seedlings. The following day the seedlings were inoculated with a spore suspension of Septoria tritici (the causal agent of wheat leaf blotch) and incubated in saturated atmosphere at 24° C. for 48 h. and then the seedlings were moved to a growth chamber at 20° C. for 19 additional days, after which time visual disease ratings were made.

Alternaria solani = test: Test C: tomato early blight, preventive spray on tomato seedlings, visual disease rating; details: tomato early blight, 100 = 100% disease control; for Test C rating (% disease control): preventive spray, 0 = no control; for Test C disease control rating: 0 = no disease control relative to controls
[2] = test system: Erysiphe graminis f sp. tritici; test: Test J: wheat powdery mildew, preventive spray on wheat seedlings, visual disease rating; details: wheat powdery mildew, 100 = 100% disease control; for Test J rating (% disease control): preventive spray, 0 = no control; for Test J disease control rating: sprayed the day before inoculation, 0 = no disease control relative to controls
Septoria nodorum = test: Test F: Septoria glume blotch, preventive spray on wheat seedlings, visual disease rating; details: Septoria glume blotch on wheat, 100 = 100% disease control; for Test F rating (% disease control): preventive spray, 0 = no control; for Test F disease control rating: 0 = no disease control relative to controls
Text: as §1
The test suspension was sprayed to the point of run-off on wheat seedlings. The following day the seedlings were inoculated with a spore suspension of Septoria nodorum (the causal agent of Septoria glume blotch) and incubated in a saturated atmosphere at 24° C. for 48 h, and then moved to a growth chamber at 20° C. for 6 days, after which time visual disease ratings were made.

[3] = test system: Puccinia recondita f. sp. tritici; test: Test H: wheat leaf rust, curative spray on inoculated wheat seedlings, visual disease rating; details: wheat leaf rust, sprayed after inoculation; 100 = 100% disease control, 0 = no disease control relative to controls

SMILES	Test D rating (% disease control) (Phytophthora infestans) [%]	Test E rating (% disease control) (Rhizoctonia solani) [%]	Test I rating (% disease control) [1] [%]	Test B rating (% disease control) (Botrytis cinerea) [%]	Test G rating (% disease control) (Septoria tritici) [%]	Test C rating (% disease control) (Alternaria solani) [%]	Test J rating (% disease control) [2] [%]	Test F rating (% disease control) (Septoria nodorum) [%]	Test E disease control rating (Rhizoctonia solani) [%]	Test I disease control rating [1] [%]	Test B disease control rating (Botrytis cinerea) [%]	Test G disease control rating (Septoria tritici) [%]	Test C disease control rating (Alternaria solani) [%]	Test J disease control rating [2] [%]	Test F disease control rating (Septoria nodorum) [%]	Test H disease control rating [3] [%]
Cc1nn(C)c(Nc2cc(F)cc(F)c2)c1-c1ccc(F)cc1Cl [compound 9]	0	55	98	99	100	0	97	0								
Cc1nn(C)c(Nc2cc(F)cc(F)c2F)c1-c1ccc(Cl)cc1 [compound 10]	0	0	0	47	0	0	0	0								
Cc1nn(C)c(Nc2ccc(F)cc2)c1-c1ccc(F)cc1Cl [compound 11]	0	99	99	99	100	99	100	0								
Cc1nn(C)c(N(c2c(F)cc(F)cc2F)S(C)(=O)=O)c1-c1ccc(F)cc1Cl [compound 304]									0	0	0	16	0	0	0	
COCN(c1c(F)cc(F)cc1F)c1c(-c2ccc(F)cc2Cl)c(C)nn1C [compound 309]									92	0	97	100	61	99	60	
Cc1nn(C)c(Nc2ccc(F)cc2F)c1-c1c(Cl)cccc1Cl [compound 339]										98	100	100	0	100	0	0
Cc1nn(C)c(Nc2ccc(F)cc2Br)c1-c1c(Cl)cccc1Cl [compound 340]										91	99	100	0	100	0	0
Cc1nn(C)c(Nc2c(Cl)cc(F)cc2Cl)c1-c1c(Cl)cccc1Cl [compound 341]										99	99	99	0	93	0	0
Cc1nn(C)c(Oc2ccc(C#N)cc2F)c1-c1c(F)cccc1Cl [compound 342]										100	100	100	33	100	99	0
Cc1nn(C)c(Nc2ccc([N+](=O)[O-])cc2F)c1-c1ccc(F)cc1Cl [compound 344]										100	100	100	40	100	87	62
Cc1nn(C)c(Nc2cc([N+](=O)[O-])ccc2F)c1-c1ccc(F)cc1Cl [compound 345]										9	0	67	0	0	0	0
Cc1nn(C)c(Nc2c(Cl)cc(F)cc2Br)c1-c1ccc(F)cc1F [compound 348]										100	100	100	80	100	94	19
Cc1nn(C)c(Nc2c(F)cccc2F)c1-c1ccc(Cl)cc1Cl [compound 353]										99	97	99	17	99	0	3
Cc1nn(C)c(Nc2ccc(F)cc2Cl)c1-c1ccc(Cl)cc1Cl [compound 354]										98	99	100	0	100	0	82
COc1ccc(Nc2c(-c3ccc(Cl)cc3Cl)c(C)nn2C)cc1 [compound 355]										91	99	100	0	0	0	3
Cc1nn(C)c(Oc2ccc(C#N)cc2Cl)c1-c1ccc(Cl)cc1Cl [compound 362]										96	100	100	0	96	0	0
Cc1nn(C)c(Nc2c(Cl)cc(F)cc2Cl)c1-c1ccc(Cl)cc1Cl [compound 363]										96	65	99	0	43	0	0
Cc1nn(C)c(Nc2ccc(Br)cc2F)c1-c1ccc(F)cc1Cl [compound 366]										99	100	100	58	100	0	9
